Tests used:
[1] = Log P, n-octanol/water partition coefficient; format: physicochemical
From the text: The term log P is the n-octanol/water partition coefficients of the material.
The copper to be removed is inside the hair and the chelant needs to penetrate inside hair and form a strong copper-chelant complex. This copper-chelant complex needs to be water soluble and thus easily removed during the rinsing process. […] These are log P, the octanol/water partitioning coefficient, and the molecular weight of the chelant. Both are related to the ability of the chelant to penetrate into hair and also form a water soluble copper-chelant complex

[2] = log of formation constant of complex with copper; cited from earlier work
[3] = Copper content of colored hair switches after repeated shampoo wash cycles (ICP-OES); settings: clarifying shampoo containing the chelant, 20 cycles, copper content of hair compared to same treatment with shampoo without chelant
Method: The copper removing performance of the shampoo composition is determined by treating hair with clarifying shampoo containing the corresponding chelant for 20 cycles and comparing the copper content of the hair compared to the same treatment using shampoo without the chelant.
All testing are performed on colored hair switches (see Method of Measurement of Copper on Hair below) weighing approximately 4.0 grams and having a length of approximately 6 inches. The hair switches are commercially available from IHIP (International Hair Importers). Three hair switches per shampoo composition are used. An amount of […] of shampoo is spread via a syringe onto separate hair switch. That is, the dosage is 0.10 g of shampoo per g of hair. Each application consists of adding shampoo to the hair, milking for 30 seconds followed by rinsing for 30 seconds. Shampoo is then reapplied (0.1 g/g), milked for 30 seconds and rinsed for 30 seconds. Excess water is squeezed from the hair switches and left to air dry or treated with a rinse-off conditioner and/or a leave-on treatment composition. This protocol is repeated for a number of times/cycles (as indicated in the tables below, which describe the details of hair treatments).
The following test method is used to assess the ability of the compositions and regimens to remove copper from the hair and to inhibit copper deposition onto the hair.
Hair switches are colored once with an oxidative hair colorant. An extra blonde shade is used for the testing. The hair switches are washed for 10 or 20 repeat wash cycles in tap water containing 7 grains per gallon water hardness (Ca/Mg) and 0.06 μg/g copper ions. Each wash cycle consists of two applications of 0.1 g/g a shampoo to the hair switches. Each application consists of adding shampoo to the hair, milking for 30 secs followed by rinsing for 30 secs. Shampoo is then reapplied 0.1 g/g, milked for 30 secs, rinsed for 30 secs and then dried in a heat box (60° C.) until dry.
Samples of 100 mg of hair are digested overnight with 2 ml of high purity concentrated nitric acid. The digestive mixture also contains 150 μL of 100 μg/g Yttrium internal standard (Inorganic Ventures, Christianburg, Va., USA). Following digestion, samples are heated to 70-80° C. for one hour, cooled to room temperature and diluted to 15 mL with deionized water. Copper content of the hair switches is determined by inductively coupled plasma atomic spectroscopy (ICP-OES)). For each leg, 3 different samples are analyzed.
In order to minimize the variability of the resulting copper content on hair that is related to (a) lot-to-lot viariability due to hair switches and (b) day-to-day variability of the water used during shampoo and conditioner treatments, a single lot of hair switches is used for each experimental series and a separate control experiment/treatment is run for each experimental series (see below).

| Compound | logP [1] | Log KML Cu [2] | Copper Removing Performance from Shampoo [3] |
| --- | --- | --- | --- |
| O=C(O)c1cc(O)cc(C(=O)O)n1 [Chelidamic Acid, chelidamic acid] | 0.6 | 12.2 | 35% |
| O=C(O)c1cccc(C(=O)O)n1 [Dipicolinic Acid, dipicolinic acid] | 0.8 | 9.1 | 40% |
| CCCCc1ccc(C(=O)O)nc1 [Fusaric Acid, fusaric acid] | 2.6 |  |  |
| O=C(O)c1ccccn1 [Picolinic Acid, picolinic acid] | 0.7 | 7.9 | 50% |
| O=C(O)c1ccc2ccccc2n1 [Quinaldic Acid, quinaldic acid] | 2.1 | 5.9 | 35% |

More lines, main results first:

| logP [1] | Compound | Log KML Cu [2] | Copper Removing Performance from Shampoo [3] |
| --- | --- | --- | --- |
| 0 | Nc1cc(C(=O)O)nc(C(=O)O)c1 [4-Aminopyridine-2,6-dicarboxylic acid, 4-aminopyridine-2,6-dicarboxylic acid] | 11.4 |  |
| 1 | Cc1cccc(C(=O)O)n1 [6-Methyl Picolinic Acid, 6-methylpyridine-2-carboxylic acid] | 7.1 | 35% |
| 0.4 | O=C(O)c1cccnc1C(=O)O [Quinolinic Acid, quinolinic acid] |  | 50% |

From patent publication US11246816B2, “Shampoo compositions comprising a chelant” (The Procter & Gamble Company, priority 2016, dated 2022)
